In patent US9670230B2, “Heteroaryl compounds and methods of use thereof” (SUNOVION PHARMACEUTICALS INC., priority 2012, dated 2017) one finds IC50 data, which are given here for twelve compounds.

recombinant human PDE-10 enzyme, sequence (Q9Y233 whole entry): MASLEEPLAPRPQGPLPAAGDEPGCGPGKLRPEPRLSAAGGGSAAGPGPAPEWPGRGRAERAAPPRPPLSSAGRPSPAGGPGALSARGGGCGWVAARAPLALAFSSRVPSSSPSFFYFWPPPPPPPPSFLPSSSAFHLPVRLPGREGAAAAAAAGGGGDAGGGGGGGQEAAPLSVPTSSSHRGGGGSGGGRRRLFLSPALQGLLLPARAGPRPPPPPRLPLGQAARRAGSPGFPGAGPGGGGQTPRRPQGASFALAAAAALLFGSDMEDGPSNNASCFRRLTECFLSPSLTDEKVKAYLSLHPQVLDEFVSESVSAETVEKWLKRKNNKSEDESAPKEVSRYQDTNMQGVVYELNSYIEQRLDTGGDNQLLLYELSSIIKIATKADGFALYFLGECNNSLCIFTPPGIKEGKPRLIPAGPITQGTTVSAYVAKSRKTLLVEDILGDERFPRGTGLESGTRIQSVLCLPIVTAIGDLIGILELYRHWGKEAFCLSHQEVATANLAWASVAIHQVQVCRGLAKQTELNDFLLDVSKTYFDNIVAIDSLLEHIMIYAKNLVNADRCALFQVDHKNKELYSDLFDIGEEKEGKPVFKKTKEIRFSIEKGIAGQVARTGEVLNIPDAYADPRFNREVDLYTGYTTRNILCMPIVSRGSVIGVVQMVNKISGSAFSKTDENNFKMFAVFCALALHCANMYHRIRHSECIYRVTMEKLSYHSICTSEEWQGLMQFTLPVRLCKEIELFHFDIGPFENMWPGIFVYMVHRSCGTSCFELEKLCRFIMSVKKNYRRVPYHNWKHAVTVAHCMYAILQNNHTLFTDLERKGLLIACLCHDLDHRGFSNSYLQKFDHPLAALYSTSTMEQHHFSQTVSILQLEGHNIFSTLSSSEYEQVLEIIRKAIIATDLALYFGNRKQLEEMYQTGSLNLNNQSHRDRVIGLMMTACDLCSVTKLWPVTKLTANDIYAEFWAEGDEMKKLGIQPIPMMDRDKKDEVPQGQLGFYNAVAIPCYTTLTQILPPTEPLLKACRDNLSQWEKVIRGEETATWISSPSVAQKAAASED

This assay concerns the target recombinant human PDE-10 enzyme (Homo sapiens (Human), UniProt Q9Y233). Description: Molecular Devices IMAP PDE Fluorescence Polarization assay, human PDE-10 inhibition (enzyme assay IC50). It counts as biochemical. The following applies: recombinant human PDE-10 expressed in baculoviral system; Fluorescein-labeled cAMP/cGMP substrate; 40-minute incubation at 37° C. The protocol:
In one embodiment, the compounds provided herein were assayed for their ability to inhibit human PDE-10A. In one embodiment, the activities of the compounds were determined using the Molecular Devices IMAP PDE Fluorescence Polarization assay using recombinant human PDE-10 enzyme expressed in a baculoviral system. Briefly, 10 μL of a compound (0.2 nM-20 μM) was added to either a 96-well half area black plate or a 384-well black plate along with 10 μL of Fluorescein-labeled cAMP/cGMP substrate as per manufacturer's instructions and 10 μL of PDE enzyme (activity 0.1 U). Following a 40-minute incubation at 37° C., 60 μL of IMAP binding reagent was added. The plate was then read on a Perkin Elmer Victor (480-535 nm). The data was analyzed using Prism Software (GraphPad Inc, San Diego, Calif.).
Usually IC50 stands for the concentration that inhibits the measured activity by half. On to `Cc1ncc(C)n2nc(CCc3ccc4c(n3)N[C@H](C)CC4)nc12` [Compound 4, (R)-7-(2-(5,8-dimethyl-[1,2,4]triazolo[1,5-a]pyrazin-2-yl)ethyl)-2-methyl-1,2,3,4-tetrahydro-1,8-naphthyridine], for which the IC50 lay in the range of 10 to 100 nM. As to `Cc1ncc(C)n2nc(CCc3ccc4c(n3)N(C)C(C)CO4)nc12` (stereo not drawn) [Compound 10, 6-(2-(5,8-dimethyl-[1,2,4]triazolo[1,5-a]pyrazin-2-yl)ethyl)-3,4-dimethyl-3,4-dihydro-2H-pyrido[3,2-b][1,4]oxazine], the IC50 was in the range of 100 to 500 nM. Regarding `COc1ccc2ccc(CCc3nc4c(C)ncc(C)n4n3)nc2c1` [Compound 2, 2-(2-(5,8-dimethyl-[1,2,4]triazolo[1,5-a]pyrazin-2-yl)ethyl)-7-methoxyquinoline], the IC50 is no more than 10 nM. On to `Cc1ncc(C)n2nc(CCc3ccc4c(n3)NC(C)(C)CO4)nc12` [Compound 12, 6-(2-(5,8-dimethyl-[1,2,4]triazolo[1,5-a]pyrazin-2-yl)ethyl)-3,3-dimethyl-3,4-dihydro-2H-pyrido[3,2-b][1,4]oxazine], for which the IC50 lay in the range of 100 to 500 nM.

In the case of `Cc1ncc(C)n2nc(CCc3ccc4c(n3)N[C@@H](C)CO4)nc12` [Compound 8, (S)-6-(2-(5,8-dimethyl-[1,2,4]triazolo[1,5-a]pyrazin-2-yl)ethyl)-3-methyl-3,4-dihydro-2H-pyrido[3,2-b][1,4]oxazine], the IC50 fell in the range of 100 to 500 nM. The same measure for `Cc1ncc(C)n2nc(CCc3ccc4c(n3)NC(C)CO4)nc12` (stereo not drawn) [Compound 6, 6-(2-(5,8-dimethyl-[1,2,4]triazolo[1,5-a]pyrazin-2-yl)ethyl)-3-methyl-3,4-dihydro-2H-pyrido[3,2-b][1,4]oxazine]: 10 to 100 nM; for `Cc1ccc2ccc(CCc3nc4c(C)ncc(C)n4n3)nc2c1` [Compound 1, 2-(2-(5,8-dimethyl-[1,2,4]triazolo[1,5-a]pyrazin-2-yl)ethyl)-7-methylquinoline]: no more than 10 nM. Consider `CCC1COc2ccc(CCc3nc4c(C)ncc(C)n4n3)nc2N1` (stereo not drawn) [Compound 9, 6-(2-(5,8-dimethyl-[1,2,4]triazolo[1,5-a]pyrazin-2-yl)ethyl)-3-ethyl-3,4-dihydro-2H-pyrido[3,2-b][1,4]oxazine], for which the IC50 was 10 to 100 nM. In the case of `Cc1ncc(C)n2nc(CCc3ccc4c(n3)N[C@@H](C)CC4)nc12` [Compound 5, (S)-7-(2-(5,8-dimethyl-[1,2,4]triazolo[1,5-a]pyrazin-2-yl)ethyl)-2-methyl-1,2,3,4-tetrahydro-1,8-naphthyridine], the IC50 is 10 to 100 nM. Take `Cc1ncc(C)n2nc(CCc3ccc4c(n3)N[C@H](C)CO4)nc12` [Compound 7, (R)-6-(2-(5,8-dimethyl-[1,2,4]triazolo[1,5-a]pyrazin-2-yl)ethyl)-3-methyl-3,4-dihydro-2H-pyrido[3,2-b][1,4]oxazine]: the IC50 is 10 to 100 nM. Take `Cc1ncc(C)n2nc(CCc3ccc4c(n3)NC(C)CC4)nc12` (stereo not drawn) [Compound 3, 7-(2-(5,8-dimethyl-[1,2,4]triazolo[1,5-a]pyrazin-2-yl)ethyl)-2-methyl-1,2,3,4-tetrahydro-1,8-naphthyridine]: the IC50 fell in the range of 10 to 100 nM. For the compound `CCC1COc2ccc(CCc3nc4c(C)ncc(C)n4n3)nc2N1C` (stereo not drawn) [Compound 11, 6-(2-(5,8-dimethyl-[1,2,4]triazolo[1,5-a]pyrazin-2-yl)ethyl)-3-ethyl-4-methyl-3,4-dihydro-2H-pyrido[3,2-b][1,4]oxazine], the IC50 was greater than 500 nM.
